In brackets after ≈: the same amount, converted by molar mass.
Tested on: HL-60
Test: Antioxidant activity in PMA-stimulated Homo sapiens (human) HL60 cells assessed as inhibition of intracellular ROS generation incubated for 30 min prior to PMA stimulation measured after 30 min by DCFH-DA assay
Type: functional, cell-based

IC50: 0.3 µg/mL (≈ 1.2 µM)
SMILES: Cc1c(C)c2c(c(C)c1O)CCC(C)(C(=O)O)O2 (stereo unspecified) [TROLOX]
